For one test, the system named is H2122 cells. The test can be described thus: Soft agar colony formation (anchorage-independent growth). Format: cell-based, human. To be noted: for further growth inhibition by drug after siRNA knockdown of RalA and RalB: H2122 cells with siRNA knockdown of RalA and RalB; for growth inhibition effect with overexpression of constitutively active RalAG23V or RalBG23V: H2122 cells, transient transfection. The method, then: (§1) The effects of RBC8 and BQU57 on human lung cancer cell growth were evaluated. Because Ral is well-known for its role in anchorage independence, we carried out growth inhibition assays in soft agar. Four human lung cancer cells H2122, H358, H460 and Calu6 were used in a series of experiments to determine drug uptake, biologic specificity, and effect. To measure growth inhibition of human lung cancer cells under anchorage-independent conditions in soft agar, cells were seeded into 6-well plates (coated with a base layer made of 2 ml of 1% low-melting-point agarose) at 15,000 cells per well in 3 ml of 0.4% low-melting-point agarose containing various concentration of drug. Two to four weeks (depending on cell line) after incubation, cells were stained with 1 mg/ml MTT and colonies were counted under a microscope.
(§2) For the chemo-genetic experiments, siRNA treated cells were seeded into soft agar in the presence of various concentrations of drug. For the overexpression experiments, H358 cells stably overexpressing FLAG, FLAG-RalA^G23V or FLAG-RalB^G23V were generated and cells were subjected to the soft agar colony formation assay in the presence of drug. Attempts to stably overexpress FLAG-RalA^G23V or FLAG-RalB^G23V in H2122 cells were unsuccessful and the rescue experiments with H2122 were carried out 72 hrs after the transient transfection with FLAG, FLAG-RalA^G23V or FLAG-RalB^G23V using the soft agar colony formation assay in the presence of drug.

The test system of another test is H358 cells. The test is described as above. Format: cell-based, human. The following applies: for further growth inhibition by drug after siRNA knockdown of RalA and RalB: H358 cells with siRNA knockdown of RalA and RalB; for growth inhibition effect with overexpression of constitutively active RalAG23V or RalBG23V: H358 cells, stable overexpression. The method, then:
as §1, §2

In another test the target is T1, RalB (Homo sapiens, UniProt P11234).
T1 sequence (P11234 1-206): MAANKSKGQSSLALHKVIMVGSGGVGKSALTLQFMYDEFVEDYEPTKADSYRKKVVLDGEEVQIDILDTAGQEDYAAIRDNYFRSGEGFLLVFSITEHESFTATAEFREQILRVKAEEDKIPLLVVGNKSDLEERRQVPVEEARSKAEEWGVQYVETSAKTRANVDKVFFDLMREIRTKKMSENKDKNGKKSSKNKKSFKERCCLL
The test can be described thus: Ral activity pull-down assay with RalBP1 agarose beads in cells. The test is classed as cell-based. Further details: endogenous in cells; host or cells: H2122 and H358 human lung cancer cells. The following applies: H2122 and H358 cells, 10 μM compound, 3 hrs. The method, then: (§3) FIGS. 6A-6E show the cellular uptake of Ral inhibitors in vitro. H2122 human lung cancer cells were treated with 10 μM of RBC8 (FIG. 6A), BQU57 (FIG. 6B), BQU85 (FIG. 6C), and RBC5 (FIG. 6D). Cells were collected at different time points (1, 5, 15, 30 and 60 min), and drug concentrations in cells determined using LC/MS-MS methods (n=3 for each time point). […] Cells were grown under anchorage-independent conditions and treated with 10 μM compounds for 3 hours. Ral activity in cell lysates were then determined using the pull down assay with RalBP1 agarose beads. Data represent three independent experiments.
(§4) To confirm that Ral activity is inhibited in H2122 and H358 cells by drug treatment, we performed the Ral activity pull-down assay. Cells were treated with drug for 3 hrs, collected and Ral activity measured using the RalBP1 pull-down assay kit (Millipore #14-415). RBC8 and BQU57 but not RBC5 inhibited both RalA and RalB activity in both cell lines (FIG. 6E).

Test [1] has as its target T2, RalA (Homo sapiens, UniProt P11233).
T2 sequence (P11233 1-206): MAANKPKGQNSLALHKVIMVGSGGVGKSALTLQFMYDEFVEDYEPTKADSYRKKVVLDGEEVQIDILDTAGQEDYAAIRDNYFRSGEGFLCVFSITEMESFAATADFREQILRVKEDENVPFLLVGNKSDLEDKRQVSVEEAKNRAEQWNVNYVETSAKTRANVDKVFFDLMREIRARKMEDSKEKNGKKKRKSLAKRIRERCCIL
The description is as above. Further details: endogenous in cells; host or cells: H2122 and H358 human lung cancer cells. The test is classed as cell-based. The following applies: H2122 and H358 cells, 10 μM compound, 3 hrs. The method, then: as §3, §4

Test [2] has as its target T2, RalA. The test is described as follows: RalBP1 pull-down of Ral activity in H2122 xenograft tumors. Format: in vivo. The following applies: single i.p. dose, RBC8 50 mg/kg or BQU57 10/20/50 mg/kg, tumors collected 3 h post-dose. Here is the method:
Finally, we evaluated Ral GTPase activity in vivo in the H2122 xenografts. Nude mice were inoculated with 5×10^6 cells H2122 cells s.c. at four sites per mice. Tumor size reached an average of 250 mm^3 in ten days, at which time mice were given a signal i.p. dose of RBC8 or BQU57 at various concentrations. Tumors were then collected 3 h after injection of RBC8 or BQU57. RalA and RalB activity in tumor samples were then measured using the RalBP1 pull-down assay kit (Millipore #14-415). Ras and RhoA activity in tumor samples were measured using the respective pull-down assay kits. All the activity assays used western blotting as the final readout. For quantification of the immunoblots, the bands on each blot were first normalized to their respective internal control (10 ng of recombinant Ral, Ras, or […] protein run in the last lane) the numbers were then compared across different blots, each of which represented one treatment condition. Mice bearing H2122 tumors (median size 250 mm^3) were given a single intraperitoneal dose of RBC8 (50 mg/kg) or BQU57 (10/20/50 mg/kg) and tumors collected 3 h post-dose.

For test [3], the system named is H2122 human lung cancer cells. The test is described as follows: H2122 xenograft tumor growth. The test is classed as in vivo, nude mice. To be noted: i.p. daily except weekends, initiated 24 h after inoculation; RBC8 50 mg/kg/d; BQU57 and BQU85 5, 10, 20, and 50 mg/kg/d. The method, then: We next determined compound entry into tumor tissue. To do so, athymic nude mice (Ncr nu/nu; National Cancer Institute, Fredrick, Md.) were received at 5 to 6 weeks of age and were allowed to acclimate for 2 weeks in sterile micro isolator cages with constant temperature and humidity. Mice had free access to food and water. H2122 cells in log-phase growth were harvested on the day of use. Cells were suspended in un-supplemented RPMI 1640 medium and 0.1 mL (2×10^5 cells) was injected s.c. four sites per mice. For H358 xenografts, cells (5×10^6) were mixed with matrigel (20% final concentration) and 0.1 mL was inoculated s.c. per site. After cell inoculation, mice were monitored daily, weighed twice weekly and caliper measurements begun when tumors visible. Tumor volume was calculated by (L×W2)/2, where L is longer measurement of tumor and W is the smaller tumor measurement. Drug treatment started the day after inoculation. Compounds were dissolved in DMSO and injected i.p. daily except weekends at 10/20/50 mg/kg. […] The effect of the Ral inhibitors on xenograft tumor growth was then tested in nude mice. Mice were inoculated subcutaneously with H2122 human lung cancer cells and treated intraperitoneally with 50 mg/kg/d (except weekends) of RBC8 24 h post inoculation.

Molecules are shown by their SMILES. Entries after “also recorded” stand apart in the source; their conditions may differ. Where two headings read alike, the source gives them in different places.

For orientation: IC50 means the concentration at which inhibition is half-maximal. With `Cc1nn(C)c2c1C(c1ccc(C(F)(F)F)cc1)C(C#N)=C(N)O2` (centres unmarked) [BQU57, 6-amino-1,3-dimethyl-4-(4-(trifluoromethyl)phenyl)-1,4-dihydropyrano[2,3-c]pyrazole-5-carbonitrile], the “further growth inhibition by drug after siRNA knockdown of RalA and RalB” value with H2122 cells and with H358 cells was “did not result in significant further inhibition” each time. Besides, the “growth inhibition effect with overexpression of constitutively active RalAG23V or RalBG23V” value with H2122 cells and in the test on H358 cells was “rescue” throughout. For the same compound, the IC50 turned out to be 2000 nM with H2122 cells (Homo sapiens, NCI-H2122, read-out: IC50 (50% reduction in colony number)) and 1300 nM with H358 cells (Homo sapiens, NCI-H358, read-out: IC50 (50% reduction in colony number)). The “inhibition of RalB activity” value against RalB is reported as “inhibited”. In addition, the “inhibition of RalA activity” value on RalA [1] is recorded as “inhibited”. In addition, the “inhibition of RalA activity in tumors” value at RalA [2] was “significant inhibition”. The “xenograft tumor growth inhibition” value in test [3] is listed as “dose-dependent growth inhibition effects were observed; also recorded: inhibited xenograft tumor growth”.

Regarding `COc1ccc(OC)c(C2C(C#N)=C(N)Oc3n[nH]c(-c4ccc5ccccc5c4)c32)c1` (centres unmarked) [RBC8], the IC50 with H2122 cells (H2122, soft agar, 2-4 weeks, read-out: IC50 (50% reduction in colony number)) was found to be 3500 nM; with H358 cells (H358, soft agar, 2-4 weeks, read-out: IC50 (50% reduction in colony number)), 3400 nM. In addition, the “further growth inhibition by drug after siRNA knockdown of RalA and RalB” value in the test on H2122 cells and in the test with H358 cells was “did not result in significant further inhibition” each time. For the same compound, the “growth inhibition effect with overexpression of constitutively active RalAG23V or RalBG23V” value with H2122 cells and in the test on H358 cells was “rescue” each time. Moreover, the “inhibition of RalB activity” value against RalB is “inhibited”. On RalA [1], the “inhibition of RalA activity” value is listed as “inhibited”. The “inhibition of RalA activity in tumors” value against RalA [2] is reported as “significant inhibition”. The “xenograft tumor growth inhibition” value in test [3] is reported as “inhibited xenograft tumor growth”.

Source of the values: patent US11472812B2, “Anti-cancer compounds targeting Ral GTPases and methods of using the same” (The Regents of the University of Colorado, a body corporate, priority 2014, dated 2022).
